Patent EP1077981B1, “NOVEL CEPHALOSPORIN COMPOUNDS, PROCESSES FOR PREPARATION THEREOF AND ANTIMICROBIAL COMPOSITIONS CONTAINING THE SAME” (LG CHEMICAL LIMITED, priority 1998, dated 1999)
≈ marks a conversion by molar mass, not a printed value. Like-named read-outs stand apart in the source and are kept apart here.

Assays:
[1] = system: Staphylococcus aureus 241; assay: MIC against standard strains (agar dilution); assay type: cell-based; settings: Staphylococcus aureus 241; Mueller-Hinton agar, 20 hours at 37°C; read-out: MIC
Method: (§1) Test example 1: Measurement of Minimum Inhibitory Concentration (MIC)
(§2) Specifically, test compounds were diluted by 2-fold dilution method and dispersed in Mueller-Hinton agar medium and then, 2µℓ of test strains were inoculated at a concentration of 10^7 cfu(colony forming unit)/mℓ on the medium and incubated for 20 hours at 37°C.

[2] = system: Citrobacter diversus 2046E; assay: MIC against standard strains (agar dilution); assay type: cell-based; settings: Citrobacter koseri; Citrobacter diversus 2046E; Mueller-Hinton agar, 20 hours at 37°C; read-out: MIC
Method: as §1, §2

[3] = system: Salmonella typhimurium 14028; assay: MIC against standard strains (agar dilution); assay type: cell-based; settings: Salmonella enterica; Salmonella typhimurium 14028; Mueller-Hinton agar, 20 hours at 37°C; read-out: MIC
Method: as §1, §2

[4] = system: Pseudomonas aeruginosa 6065Y; assay: MIC against standard strains (agar dilution); assay type: cell-based; settings: Pseudomonas aeruginosa 6065Y; Mueller-Hinton agar, 20 hours at 37°C; read-out: MIC
Method: as §1, §2

[5] = system: Morganella morganii 1375E; assay: MIC against standard strains (agar dilution); assay type: cell-based; settings: Morganella morganii 1375E; Mueller-Hinton agar, 20 hours at 37°C; read-out: MIC
Method: as §1, §2

Escherichia coli 3190Y = assay: MIC against standard strains (agar dilution); assay type: cell-based; settings: Escherichia coli, 3190Y, 20 h
Method: as §1, §2

[6] = system: Citrobacter freundii 8090; assay: MIC against standard strains (agar dilution); assay type: cell-based; settings: Citrobacter freundii 8090; Mueller-Hinton agar, 20 hours at 37°C; read-out: MIC
Method: as §1, §2

[7] = system: Enterococcus faecalis 29212; assay: MIC against standard strains (agar dilution); assay type: cell-based; settings: Enterococcus faecalis 29212; Mueller-Hinton agar, 20 hours at 37°C; read-out: MIC
Method: as §1, §2

[8] = system: Staphylococcus aureus 6538p; assay: MIC against standard strains (agar dilution); assay type: cell-based; settings: Staphylococcus aureus 6538p; Mueller-Hinton agar, 20 hours at 37°C; read-out: MIC
Method: as §1, §2

[9] = system: Klebsiella aerogenes SHV-1 1976E; assay: MIC against standard strains (agar dilution); assay type: cell-based; settings: Klebsiella aerogenes, 20 h
Method: as §1, §2

[10] = system: Escherichia coli TEM9 2639E; assay: MIC against standard strains (agar dilution); assay type: cell-based; settings: TEM92639E; Escherichia coli TEM9 2639E; Mueller-Hinton agar, 20 hours at 37°C; read-out: MIC
Method: as §1, §2

[11] = system: Escherichia coli TEM3 3455E; assay: MIC against standard strains (agar dilution); assay type: cell-based; settings: TEM33455E, 20 h
Method: as §1, §2

Escherichia coli 851E = assay: MIC against standard strains (agar dilution); assay type: cell-based; settings: Escherichia coli, 851E, 20 h
Method: as §1, §2

[12] = system: Serratia marcescens 1826E; assay: MIC against standard strains (agar dilution); assay type: cell-based; settings: Serratia marcescens 1826E; Mueller-Hinton agar, 20 hours at 37°C; read-out: MIC
Method: as §1, §2

[13] = system: Moraxella catarrhalis 25240; assay: MIC against standard strains (agar dilution); assay type: cell-based; settings: Moraxella catarrhalis 25240; Mueller-Hinton agar, 20 hours at 37°C; read-out: MIC
Method: as §1, §2

[14] = system: Enterobacter cloacae IND+VE 1194E; assay: MIC against standard strains (agar dilution); assay type: cell-based; settings: Enterobacter cloacae IND+VE 1194E; Mueller-Hinton agar, 20 hours at 37°C; read-out: MIC
Method: as §1, §2

[15] = system: Escherichia coli TEM1 1193E; assay: MIC against standard strains (agar dilution); assay type: cell-based; settings: TEM11193E, 20 h
Method: as §1, §2

[16] = system: Klebsiella aerogenes K1+ 1082E; assay: MIC against standard strains (agar dilution); assay type: cell-based; settings: Klebsiella aerogenes K1+ 1082E; Mueller-Hinton agar, 20 hours at 37°C; read-out: MIC
Method: as §1, §2

[17] = Pharmacokinetic experiment (blood concentration by HPLC); assay type: in vivo, mice; settings: male, mouse, blood, 20 mg/kg
Method: Test example 2: Pharmacokinetic experiment
Male mice, each of which has a body weight of […] were used in the present pharmacokinetic experiment. Test compounds were formulated into 1% of solution and then, the solution was administered by oral route and by injection with a dose of 20mg/kg, respectively. At the fixed interval of time after administration, blood was gathered from the mice. Concentrations of test compounds in blood were measured by HPLC quantitative analysis and based on the results, pharmacokinetic parameters were calculated.

[18] = intravenous, Injection, read-out: average conc.
[19] = intravenous, Injection, read-out: blood concentration, mouse-1
[20] = intravenous, Injection, read-out: blood concentration, mouse-2
[21] = other: injection, Injection, read-out: average conc.
[22] = other: injection, Injection, read-out: blood concentration, mouse-1
[23] = other: injection, Injection, read-out: blood concentration, mouse-2
[24] = po, Oral administration, read-out: average conc.
[25] = po, Oral administration, read-out: blood concentration, mouse-1
[26] = po, Oral administration, read-out: blood concentration, mouse-2
[27] = po, Oral administration, read-out: blood concentration, mouse-3

For `CO/N=C(\C(=O)NC1C(=O)N2C(C(=O)O)=C(Sc3cc(N)nc(N)n3)CSC12)c1csc(N)n1` (stereo not drawn) [Compound No. 25, 7-[(Z)-2-(2-amino-thiazol-4-yl)-2-methoxyimino-acetylamino]-3-(2,6-diamino-pyrimidin-4-ylsulfanyl)-8-oxo-5-thia-1-azabicyclo[4,2,0]oct-2-ene-2-carboxylic acid], the MIC [1] was 8 µg/mL (≈ 15.3 µM), the MIC [2] was > 64 µg/mL and the MIC [3] was 0.25 µg/mL (≈ 0.477 µM). It also gave an MIC [4] of 64 µg/mL (≈ 122 µM), an MIC [5] of 0.13 µg/mL (≈ 0.248 µM) and an MIC (Escherichia coli 3190Y) of 0.031 µg/mL (≈ 0.0592 µM). For the same compound, the MIC [6] was 1 µg/mL (≈ 1.91 µM), the MIC [7] was > 64 µg/mL and the MIC [8] was 1 µg/mL (≈ 1.91 µM). For the same compound, the MIC [9] was 0.25 µg/mL (≈ 0.477 µM), the MIC [10] was 32 µg/mL (≈ 61.1 µM) and the MIC [11] was 8 µg/mL (≈ 15.3 µM). For the same compound, the MIC (Escherichia coli 851E) was 0.063 µg/mL (≈ 0.12 µM), the MIC [12] was 2 µg/mL (≈ 3.82 µM) and the MIC [13] was ≤ 0.008 µg/mL. The MIC [14] was > 64 µg/mL, the MIC [15] was 0.25 µg/mL (≈ 0.477 µM) and the MIC [16] was > 64 µg/mL. The concentration at 1 min [17, 18] was 96400 ng/mL, the concentration at 1 min [17, 19] was 120000 ng/mL and the concentration at 1 min [17, 20] was 72800 ng/mL. For the same compound, the concentration at 5 min [17, 18] was 41200 ng/mL, the concentration at 5 min [17, 19] was 51700 ng/mL and the concentration at 5 min [17, 20] was 30700 ng/mL. For the same compound, the concentration at 10 min [17, 18] was 29100 ng/mL, the concentration at 10 min [17, 19] was 37700 ng/mL and the concentration at 10 min [17, 20] was 20400 ng/mL. The concentration at 120 min [17, 18] was 1800 ng/mL, the concentration at 120 min [17, 19] was 2200 ng/mL and the concentration at 120 min [17, 20] was 1300 ng/mL. The concentration at 180 min [17, 18] was 800 ng/mL, the concentration at 180 min [17, 19] was 1100 ng/mL and the concentration at 180 min [17, 20] was 600 ng/mL. The concentration at 240 min [17, 18] was 400 ng/mL, the concentration at 240 min [17, 19] was 500 ng/mL and the concentration at 240 min [17, 20] was 300 ng/mL. For the same compound, the concentration at 20 min [17, 21] was 17100 ng/mL, the concentration at 20 min [17, 22] was 21600 ng/mL and the concentration at 20 min [17, 23] was 12700 ng/mL. The concentration at 40 min [17, 21] was 9800 ng/mL, the concentration at 40 min [17, 22] was 12200 ng/mL and the concentration at 40 min [17, 23] was 7300 ng/mL. The concentration at 60 min [17, 21] was 6100 ng/mL, the concentration at 60 min [17, 22] was 7600 ng/mL and the concentration at 60 min [17, 23] was 4600 ng/mL. The concentration at 90 min [17, 21] was 3300 ng/mL, the concentration at 90 min [17, 22] was 4300 ng/mL and the concentration at 90 min [17, 23] was 2400 ng/mL. The concentration at 5 min [17, 24] was 90 ng/mL, the concentration at 5 min [17, 25] was 70 ng/mL and the concentration at 5 min [17, 26] was 130 ng/mL. For the same compound, the concentration at 5 min [17, 27] was 60 ng/mL, the concentration at 10 min [17, 24] was 200 ng/mL and the concentration at 10 min [17, 25] was 160 ng/mL. For the same compound, the concentration at 10 min [17, 26] was 270 ng/mL, the concentration at 10 min [17, 27] was 140 ng/mL and the concentration at 20 min [17, 24] was 490 ng/mL. It also gave a concentration at 20 min [17, 25] of 280 ng/mL, a concentration at 20 min [17, 26] of 720 ng/mL and a concentration at 20 min [17, 27] of 270 ng/mL. The concentration at 40 min [17, 24] was 470 ng/mL, the concentration at 40 min [17, 25] was 270 ng/mL and the concentration at 40 min [17, 26] was 590 ng/mL. It also gave a concentration at 40 min [17, 27] of 350 ng/mL, a concentration at 60 min [17, 24] of 440 ng/mL and a concentration at 60 min [17, 25] of 160 ng/mL. For the same compound, the concentration at 60 min [17, 26] was 610 ng/mL, the concentration at 60 min [17, 27] was 260 ng/mL and the concentration at 90 min [17, 24] was 570 ng/mL. The concentration at 90 min [17, 25] was 70 ng/mL, the concentration at 90 min [17, 26] was 840 ng/mL and the concentration at 90 min [17, 27] was 290 ng/mL. For the same compound, the concentration at 120 min [17, 24] was 360 ng/mL, the concentration at 120 min [17, 25] was 60 ng/mL and the concentration at 120 min [17, 26] was 480 ng/mL. It also gave a concentration at 120 min [17, 27] of 240 ng/mL, a concentration at 180 min [17, 24] of 410 ng/mL and a concentration at 180 min [17, 25] of 60 ng/mL. It also gave a concentration at 180 min [17, 26] of 590 ng/mL, a concentration at 180 min [17, 27] of 240 ng/mL and a concentration at 240 min [17, 24] of 230 ng/mL. The concentration at 240 min [17, 25] was 60 ng/mL, the concentration at 240 min [17, 26] was 220 ng/mL and the concentration at 240 min [17, 27] was 230 ng/mL.
